Laboratory results as given in ChEMBL document CHEMBL1201862, “PubChem BioAssay data set” (2004).
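Protocol summary: plate cells (96-well), add compound at 5 concentrations, incubate 48 h, interpolate endpoints linearly. Here, GI50 denotes the concentration required for 50% inhibition of growth.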 Active and inactive are the calls of the source. No stated cut-off is given here; in the data, active = GI50 up to about 1.1 µM and inactive = higher.

How the values were obtained:
Test in all cases: DTP human tumour cell line panel, 48 h
HCT-15 = test system: HCT-15
UO-31 = test system: UO-31
SK-MEL-2 = test system: SK-MEL-2
HL-60 = test system: HL-60
K562 = test system: K562
M14 = test system: M14
SF-295 = test system: SF-295
OVCAR-5 = test system: OVCAR-5
HCC 2998 = test system: HCC 2998
OVCAR-8 = test system: OVCAR-8
NCI-H23 = test system: NCI-H23
U-251 = test system: U-251
MOLT-4 = test system: MOLT-4
NCI-H522 = test system: NCI-H522
SN12C = test system: SN12C
EKVX = test system: EKVX
HOP-62 = test system: HOP-62
SF-539 = test system: SF-539
RPMI-8226 = test system: RPMI-8226
DMS-273 = test system: DMS-273

Row | SMILES | GI50 (HCT-15) [µM] | GI50 (UO-31) | GI50 (SK-MEL-2) | GI50 (HL-60) | GI50 (K562) | GI50 (M14) | GI50 (SF-295) | GI50 (OVCAR-5) | GI50 (HCC 2998) | GI50 (OVCAR-8) | GI50 (NCI-H23) | GI50 (U-251) | GI50 (MOLT-4) | GI50 (NCI-H522) | GI50 (SN12C) | GI50 (EKVX) | GI50 (HOP-62) | GI50 (SF-539) | GI50 (RPMI-8226) | GI50 (DMS-273)
1 | O=C(O)Cc1ccc(N2N=C(c3ccccc3)CC2=O)cc1 | > 100 | > 100 µM (inactive) | 23.2 µM (inactive) | > 100 µM (inactive) | > 100 µM (inactive) | > 100 µM (inactive) | > 100 µM (inactive) | > 100 µM (inactive) | > 100 µM (inactive) | > 100 µM (inactive) | > 100 µM (inactive) | > 100 µM (inactive) | > 100 µM (inactive) | > 100 µM (inactive) | > 100 µM (inactive) | > 100 µM (inactive) | > 100 µM (inactive) |  |  | 
2 | O=C1C(Cl)N(c2ccc([N+](=O)[O-])cc2)C1c1c[nH]c2ccccc12 (stereo not drawn) |  | 38.3 µM (inactive) | > 100 µM (inactive) | 31 µM (inactive) | 55 µM (inactive) | 64.7 µM (inactive) | > 100 µM (inactive) | > 100 µM (inactive) |  | > 100 µM (inactive) | 86.9 µM (inactive) | 62.5 µM (inactive) | 28.6 µM (inactive) | 56.8 µM (inactive) | > 100 µM (inactive) | > 100 µM (inactive) | > 100 µM (inactive) | 33 µM (inactive) | 30.8 µM (inactive) | 
3 | CCCCSCCC(N)P(=O)(O)O (stereo not drawn) | > 100 | > 100 µM (inactive) | > 100 µM (inactive) | > 100 µM (inactive) | > 100 µM (inactive) | > 100 µM (inactive) | > 100 µM (inactive) | > 100 µM (inactive) | > 100 µM (inactive) | > 100 µM (inactive) | > 100 µM (inactive) | > 100 µM (inactive) | > 100 µM (inactive) | > 100 µM (inactive) | > 100 µM (inactive) |  | > 100 µM (inactive) |  | > 100 µM (inactive) | 
4 | Cc1nc2c(n1C)C(=O)c1nc(CBr)[nH]c(=O)c1C2=O | > 100 | > 100 µM (inactive) |  | 38.7 µM (inactive) | > 100 µM (inactive) | 35.9 µM (inactive) | 0.938 µM (active) |  |  | > 100 µM (inactive) | > 100 µM (inactive) | > 100 µM (inactive) | > 100 µM (inactive) | > 100 µM (inactive) | > 100 µM (inactive) | 24.4 µM (inactive) |  | > 100 µM (inactive) | > 100 µM (inactive) | > 100 µM (inactive)
5 | COc1cccc(CC2Cc3ccccc3CC(=O)N2)c1 (stereo not drawn) |  | 20.8 µM (inactive) | 42.2 µM (inactive) | 40.1 µM (inactive) | 80 µM (inactive) | 14 µM (inactive) | 34.9 µM (inactive) | 11.7 µM (inactive) | 72.1 µM (inactive) | 53.8 µM (inactive) | 42.6 µM (inactive) | 47.1 µM (inactive) | 31.3 µM (inactive) |  | 69 µM (inactive) | 35.6 µM (inactive) | 9.18 µM (inactive) | 88.5 µM (inactive) | 37.6 µM (inactive) | 
6 | COc1cccc(NC(=O)CC(=O)NN2C(=O)/C(=C/c3ccc(N(CCC#N)CCC#N)cc3)N=C2c2cc([N+](=O)[O-])ccc2Cl)c1 | > 100 | > 100 µM (inactive) | > 100 µM (inactive) |  | 44.3 µM (inactive) | > 100 µM (inactive) | 87.1 µM (inactive) | 25.5 µM (inactive) | 96.8 µM (inactive) | 45.8 µM (inactive) | > 100 µM (inactive) | 75.3 µM (inactive) | 3.53 µM (inactive) | 43.9 µM (inactive) | > 100 µM (inactive) | 56.1 µM (inactive) | > 100 µM (inactive) | > 100 µM (inactive) | 30.3 µM (inactive) | > 100 µM (inactive)
7 | CC(=O)Oc1ccccc1[C@H]1CC(=O)C[C@H](c2ccccc2OC(C)=O)C12C(=O)c1ccccc1C2=O | 26.2 | 36.3 µM (inactive) | 23.5 µM (inactive) | > 100 µM (inactive) | 12.7 µM (inactive) | 19.9 µM (inactive) | 22.6 µM (inactive) | 44.2 µM (inactive) | 25.5 µM (inactive) | 39.6 µM (inactive) | 26.4 µM (inactive) | 38.9 µM (inactive) | 17.8 µM (inactive) | 26.7 µM (inactive) | 37.4 µM (inactive) |  | 30.4 µM (inactive) |  | 59.6 µM (inactive) | 
8 | Cc1[nH]c(=O)[nH]c(=O)c1/C=C/C(=O)NC(CO)CC(C)C (stereo not drawn) | > 360 | > 375 µM (inactive) | > 305 µM (inactive) | > 361 µM (inactive) | 179 µM (inactive) |  | > 375 µM (inactive) | > 265 µM (inactive) | 222 µM (inactive) | 160 µM (inactive) | > 362 µM (inactive) | > 343 µM (inactive) | 237 µM (inactive) | 114 µM (inactive) | 274 µM (inactive) | > 375 µM (inactive) | > 375 µM (inactive) | > 375 µM (inactive) | > 375 µM (inactive) | > 375 µM (inactive)
9 | COc1ccc(CCn2nccc2C)cc1 | > 100 | 59.6 µM (inactive) |  | > 100 µM (inactive) | > 100 µM (inactive) | > 100 µM (inactive) | > 100 µM (inactive) | > 100 µM (inactive) |  | > 100 µM (inactive) | > 100 µM (inactive) | > 100 µM (inactive) | > 100 µM (inactive) |  | 80.9 µM (inactive) | 93.8 µM (inactive) | > 100 µM (inactive) | > 100 µM (inactive) | > 100 µM (inactive) | 
10 | COc1ccccc1NC(=O)C(=O)C(C(=O)c1ccccc1F)C1OC(=O)c2ccccc21 (stereo not drawn) | 25 | 32.4 µM (inactive) | 17.6 µM (inactive) | 20.3 µM (inactive) | 32.7 µM (inactive) | 27.5 µM (inactive) | 43.1 µM (inactive) | 45.1 µM (inactive) | 14.8 µM (inactive) | 19.9 µM (inactive) | 20 µM (inactive) | 14.3 µM (inactive) | 15.5 µM (inactive) | 16.9 µM (inactive) | 24.2 µM (inactive) | 27.9 µM (inactive) | 30.5 µM (inactive) | 20.8 µM (inactive) | 20.2 µM (inactive) | 23.9 µM (inactive)
11 | CC1(Cl)CC2C(CC1Sc1nnnn1-c1ccccc1)C2(C)C (stereo not drawn) | 41.3 | 37.5 µM (inactive) | > 100 µM (inactive) | 17.9 µM (inactive) | 32.4 µM (inactive) | > 100 µM (inactive) | 40.8 µM (inactive) | > 100 µM (inactive) | > 100 µM (inactive) | > 100 µM (inactive) | 64.3 µM (inactive) |  | 30.1 µM (inactive) |  | > 100 µM (inactive) | 28.1 µM (inactive) | > 100 µM (inactive) | > 100 µM (inactive) | 27.8 µM (inactive) | 71.9 µM (inactive)
12 | Cc1ccc(SSCCCCCS(=O)O)cc1 |  | 19.9 µM (inactive) | 25.8 µM (inactive) | 16.6 µM (inactive) | 21.2 µM (inactive) | 40.4 µM (inactive) |  | > 100 µM (inactive) | 46.7 µM (inactive) |  | 28.2 µM (inactive) | 11 µM (inactive) | 6.34 µM (inactive) | 14.6 µM (inactive) | 20.6 µM (inactive) | 45.3 µM (inactive) | 29.9 µM (inactive) | 16.2 µM (inactive) | 24.9 µM (inactive) | 
13 | CSCC[C@@H](NC(=O)[C@H](CC(C)C)NC(=O)C(Cc1cnc[nH]1)NC(=O)CNC(=O)[C@@H](NC(=O)[C@H](C)NC(=O)[C@H](Cc1cn(C=O)c2ccccc12)NC(=O)[C@H](CCC(N)=O)NC(=O)[C@@H](N)CC(N)=O)C(C)C)C(N)=O (stereo partly drawn) | > 100 | > 100 µM (inactive) | > 100 µM (inactive) | > 100 µM (inactive) | > 100 µM (inactive) |  | > 100 µM (inactive) | > 100 µM (inactive) | > 100 µM (inactive) | > 100 µM (inactive) | > 100 µM (inactive) | > 100 µM (inactive) | > 100 µM (inactive) | > 100 µM (inactive) | > 100 µM (inactive) | > 100 µM (inactive) | > 100 µM (inactive) | > 100 µM (inactive) | > 100 µM (inactive) | > 100 µM (inactive)
14 | NCCCCCC(CCN)SCC1OC(n2cnc3c(N)ncnc32)C(O)C1O (stereo not drawn) | > 946 | 394 µM (inactive) | > 1500 µM (inactive) | 519 µM (inactive) | 436 µM (inactive) |  | 469 µM (inactive) | > 1500 µM (inactive) | > 1150 µM (inactive) | > 708 µM (inactive) | 764 µM (inactive) | 687 µM (inactive) | 551 µM (inactive) | 822 µM (inactive) | > 574 µM (inactive) | > 555 µM (inactive) | > 809 µM (inactive) | 483 µM (inactive) | 292 µM (inactive) | 369 µM (inactive)
15 | COc1ccccc1-c1cc(O)c2cc(C)cnc2n1 | 19.3 | 47.9 µM (inactive) | 25.2 µM (inactive) |  | 5.89 µM (inactive) | 37.9 µM (inactive) |  | 80.5 µM (inactive) | 62.1 µM (inactive) | 66.2 µM (inactive) | 40 µM (inactive) |  | 31.5 µM (inactive) | 17.2 µM (inactive) | 66.4 µM (inactive) | 52.1 µM (inactive) | 42.9 µM (inactive) | 38.5 µM (inactive) | 30.4 µM (inactive) | 
